# Laboratory results: US20060193785A1, “Pharmaceutical aerosol formulations for pressurized metered dose inhalers comprising a sequestering agent” (priority 2005, published 2006)
# Legend:
# [1] = TA 2005 stability in presence of sulphuric acid, upright Teflon-coated cans at 40° C.; type: physicochemical; conditions: 0.075 M sulphuric acid in a concentration of 0.0018 to 0.0054% w/w
# Method: A formulation of 8-hydroxy-5-[(1R)-1-hydroxy-2-[[(1R)-2-(4-methoxyphenyl)-1-methyl ethyl]amino]ethyl]-2(1H)-quinolinone hydrochloride (TA 2005) for delivering a nominal dose of 1 μg of active ingredient per actuation, was prepared with the following formulation: […]
# The formulation (120 actuations/canister, overage of 30 actuations) was filled in aluminium canisters having the internal surface coated with Teflon and fitted with a metering valve having a 63 μl metering chamber.
# A stability study was carried out by storing the formulation in upright cans at 40° C. The percent recovery of the active ingredient after one month of storage under these conditions is reported in the following: […]
# [2] = Stability study of budesonide HFA solution formulation in anodized aluminium cans at 40° C. and 75% relative humidity; type: physicochemical
# Method: A formulation for delivering a nominal dose of 200 μg of budesonide per actuation was prepared and filled in anodized aluminium canisters fitted with a metering valve having a 50 μl metering chamber.
# A stability study was carried out by storing the formulation in upright (Up) and inverted (Inv) cans at 40° C. and 75% relative humidity. After three months of storage under these conditions the percent recovery of the active ingredient was very good. At the same time, the addition of small quantities of phosphoric acid appears to reduce the main oxidation degradation product, which is the 21-aldehyde content of the budesonide formulation.
chemical stability [1],effect of small quantities of phosphoric acid on 21-aldehyde content (main oxidation degradation product) [2],SMILES
improved,,"COc1ccc(C[C@@H](C)NC[C@H](O)c2ccc(O)c3[nH]c(=O)ccc23)cc1.Cl [TA 2005, 8-hydroxy-5-[(1R)-1-hydroxy-2-[[(1R)-2-(4-methoxyphenyl)-1-methylethyl]amino]ethyl]-2(1H)-quinolinone hydrochloride]"
,reduce,"CCCC1O[C@@H]2C[C@H]3[C@@H]4CCC5=CC(=O)C=C[C@]5(C)[C@H]4[C@@H](O)C[C@]3(C)[C@]2(C(=O)CO)O1 (some centres unmarked) [Budesonide, budesonide]"
